Experimental findings from patent US10800754B2, “Heterocyclic amide compound” (TAKEDA PHARMACEUTICAL COMPANY LIMITED, priority 2016, dated 2020) are described below.

Test [1] has as its system human ovarian cancer cell A2780. Briefly: proliferation inhibitory activity against A2780 cells (CellTiter-Glo). The format is cell-based. The note with it: A2780, 72 h, 1 μM test compound, 3 days of culture, read-out: proliferation inhibitory rate (%) of A2780 cells.
For the next test, the target named is T1, human PRS protein (Homo sapiens, UniProt P07814).
T1 construct: to construct His-Avi-hEPRS (998-1512) expression plasmid; His tag (N); Avi tag (N); TEV cleavage site (ENLYFQ/GS, encoded by forward primer hEPRS-TEV-NheF) (N); made in house; host or cells: E. coli BL21(DE3)
T1 sequence (P07814 998-1512): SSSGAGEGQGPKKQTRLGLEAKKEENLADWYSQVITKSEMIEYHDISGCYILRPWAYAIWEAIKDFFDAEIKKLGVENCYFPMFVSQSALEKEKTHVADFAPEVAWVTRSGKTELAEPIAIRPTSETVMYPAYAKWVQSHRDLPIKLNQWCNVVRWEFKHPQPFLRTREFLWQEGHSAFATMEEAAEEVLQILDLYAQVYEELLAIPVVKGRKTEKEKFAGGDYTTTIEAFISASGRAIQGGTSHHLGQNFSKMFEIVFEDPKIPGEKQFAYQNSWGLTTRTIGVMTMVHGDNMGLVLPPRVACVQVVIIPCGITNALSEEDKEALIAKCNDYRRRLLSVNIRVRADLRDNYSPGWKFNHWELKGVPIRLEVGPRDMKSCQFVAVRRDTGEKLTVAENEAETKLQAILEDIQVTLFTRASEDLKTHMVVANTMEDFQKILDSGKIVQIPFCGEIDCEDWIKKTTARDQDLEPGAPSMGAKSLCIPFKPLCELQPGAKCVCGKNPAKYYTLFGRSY
Briefly: PRS inhibitory activity (ATP/[32P]pyrophosphate exchange enzyme reaction). The format is biochemical. The following applies: 300 nM test compound; recombinant human PRS (EPRS 998-1512); read-out: inhibitory rate (%) of PRS. A digest of the protocol:
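His-Avi-tagged human EPRS catalytic domain (998-1512), E. coli-expressed, was preincubated 60 min with compound (enzyme added as 40 nM solution) in Tris pH 7.5, KCl, DTT, Tween 20 and MgCl2. The substrate solution contained 300 μM ATP, 160 μM L-proline, and 400 μM pyrophosphate with [32P]pyrophosphate; reaction ran 30 min at room temperature. Charcoal-captured label was counted, with enzyme-free wells taken as 100% inhibition.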

For `CC(C)(O)Cn1cc(-c2cccc(CC(=O)Nc3cc(N4CC[C@@](C#N)(C5CC5)C4=O)ccn3)c2)cn1` [Example 101, N-(4-((3S)-3-cyano-3-cyclopropyl-2-oxopyrrolidin-1-yl)pyridin-2-yl)-2-(3-(1-(2-hydroxy-2-methylpropyl)-1H-pyrazol-4-yl)phenyl)acetamide], the inhibition at 1 µM in test [1] turned out to be 69%. Besides, the inhibition at 0.3 µM on human PRS protein stood at 99%.
On the same counts, the results for `Cc1cc(N2CC[C@@](C#N)(C3CC3)C2=O)cc(NC(=O)Cc2cccc(-c3cn(C)nc3C)c2)n1` [Example 102, N-(4-((3S)-3-cyano-3-cyclopropyl-2-oxopyrrolidin-1-yl)-6-methylpyridin-2-yl)-2-(3-(1,3-dimethyl-1H-pyrazol-4-yl)phenyl)acetamide] are 89% and 100%.
On the same counts, the results for `Cc1cc(-c2cccc(CC(=O)Nc3cc(N4CC[C@@](C#N)(C5CC5)C4=O)cc(C)n3)c2)cnn1` [Example 103, N-(4-((3S)-3-cyano-3-cyclopropyl-2-oxopyrrolidin-1-yl)-6-methylpyridin-2-yl)-2-(3-(6-methylpyridazin-4-yl)phenyl)acetamide] are 67% and 97%.
On the same counts, the results for `Cc1cc(N2CC[C@@](C#N)(C3CC3)C2=O)nc(NC(=O)Cc2cccc(-c3cnn(C)c3)c2)n1` [Example 132, N-(4-((3S)-3-cyano-3-cyclopropyl-2-oxopyrrolidin-1-yl)-6-methylpyrimidin-2-yl)-2-(3-(1-methyl-1H-pyrazol-4-yl)phenyl)acetamide] are 73% and 98%.
